Measurements reported in US20260000076A1, “ANTIMICROBIAL COMBINATIONS” (Clariant International Ltd, priority 2022, published 2026).

Key:
Type in all cases: cell-based
[1] = tested on: Serratia marcescens (B) BAM 491; experiment: Minimum inhibitory concentration (MIC), agar dilution; conditions: Caso-Agar, pH 7 (+/−0.2)
Method: (§1) The antimicrobial properties of Velsan Flex, CHA and a combination of both against bacteria, yeast and mold were investigated: For testing the inhibition of bacteria, Velsan Flex, CHA or a combination of both was diluted in 1,2-propanediol and added in different concentrations to liquid Caso-Agar at 50° C. and was buffered to pH 7 (+/−0.2). For testing the inhibition of yeast and mold, Velsan Flex, CHA or a combination of both was diluted in 1,2-propanediol and added in different concentrations to liquid Sabouraud-4% Dextrose-Agar at 50° C. and was buffered to pH 5.6 (+/−0.2). Each of the solutions was poured into a petri-dish and inoculated with the same amount of bacteria, yeast or mold respectively. The minimum inhibitory concentration (MIC) is the lowest concentration of the respective composition that inhibits the growth of the respective microorganism where the next lowest dilution fails to inhibit the growth of said microorganism. The experiments were carried out in scientifically fair conditions so that a proper comparison could be made and conclusions drawn.

[2] = tested on: Aspergillus brasiliensis (M) DSM 1988; experiment: as above; conditions: DSM1988, Sabouraud-4% Dextrose-Agar, pH 5.6 (+/−0.2)
Method: as §1

[3] = tested on: Pseudomonas aeruginosa (B) DSM 1128; experiment: as above; conditions: DSM1128, Caso-Agar, pH 7 (+/−0.2)
Method: as §1

[4] = tested on: Staphylococcus aureus (B) DSM 799; experiment: as above; conditions: DSM799, Caso-Agar, pH 7 (+/−0.2)
Method: as §1

[5] = tested on: Klebsiella pneumoniae (B) DSM 786; experiment: as above; conditions: DSM786, Caso-Agar, pH 7 (+/−0.2)
Method: as §1

[6] = tested on: Candida albicans (Y) DSM 1386; experiment: as above; conditions: DSM1386, Sabouraud-4% Dextrose-Agar, pH 5.6 (+/−0.2)
Method: as §1

[7] = tested on: Aspergillus terreus (M) IMI 45543; experiment: as above; conditions: Sabouraud-4% Dextrose-Agar, pH 5.6 (+/−0.2)
Method: as §1

[8] = tested on: Escherichia coli (B) DSM 682; experiment: as above; conditions: DSM682, Caso-Agar, pH 7 (+/−0.2)
Method: as §1

[9] = tested on: Enterobacter aerogenes (B) NCIMB 10102; experiment: as above; conditions: Klebsiella aerogenes, NCIMB10102; Caso-Agar, pH 7 (+/−0.2)
Method: as §1

[10] = tested on: Burkholderia cepacia (B) DSM 7288; experiment: as above; conditions: DSM7288, Caso-Agar, pH 7 (+/−0.2)
Method: as §1

[11] = tested on: Candida parapsilosis (Y) DSM 5784; experiment: as above; conditions: Lodderomyces parapsilosis, DSM5784; Sabouraud-4% Dextrose-Agar, pH 5.6 (+/−0.2)
Method: as §1

[12] = tested on: Escherichia coli; experiment: Challenge test (European Pharmacopoeia 10th Edition, Chapter 5.1.3) in leave-on O/W-cream gel; parameters: key: An A-criteria is related to an excellent protection of a formulation; B-criteria is needed to show sufficient protection but additional risk eliminating measures related to packaging and raw material quality need to be applied; With an F-criteria for any of the organism tested the whole challenge test is failed and the preservation/protection of the formulation is not sufficient; conditions: for Challenge test result E.c.: Example 2A, Velsan Flex 1.35%, CHA 0.15%; for Challenge test result Escherichia coli: Example 2B, CHA 0.1%, Velsan SC 0.9%, Velsan CGE 0.9%
Excerpt: (§2) Following examples show challenge test results that were done according to EUROPEAN PHARMACOPOEIA 10TH EDITION. Chapter 5.1.3. As representative microorganisms the following test germs were used: Pseudomonas aeruginosa (gram-negative organism, short “P.a.”), Staphylococcus aureus (gram-positive organism, short “S.a.”), Escherichia coli (gram negative organism, short “E.c.”), Candida albicans (yeast, short “C.a.”) and Aspergillus brasiliensis (mold, short “A.b.”).
(§3) The A criteria express the recommended efficacy to be achieved. In justified cases where the A criteria cannot be attained, for example for reasons of an increased risk of adverse reactions, the B criteria must be satisfied. An A-criteria is related to an excellent protection of a formulation, B-criteria is needed to show sufficient protection but additional risk eliminating measures related to packaging and raw material quality need to be applied. With an F-criteria for any of the organism tested the whole challenge test is failed and the preservation/protection of the formulation is not sufficient.
(§4) As a reference an unpreserved sample of the respective formulation was tested as well.
(§5) As a test system a difficult to preserve formulation was used: […]
(§6) As a Test System the Following Formulation was Used: […]

[13] = tested on: Candida albicans; experiment: as above; parameters: key: An A-criteria is related to an excellent protection of a formulation; B-criteria is needed to show sufficient protection but additional risk eliminating measures related to packaging and raw material quality need to be applied; With an F-criteria for any of the organism tested the whole challenge test is failed and the preservation/protection of the formulation is not sufficient; conditions: for Challenge test result C.a.: Example 2A, Velsan Flex 1.35%, CHA 0.15%; for Challenge test result Candida albicans: Example 2B, CHA 0.1%, Velsan SC 0.9%, Velsan CGE 0.9%
Excerpt: as §2, §3, §4, §5, §6

[14] = tested on: Staphylococcus aureus; experiment: as above; parameters: key: An A-criteria is related to an excellent protection of a formulation; B-criteria is needed to show sufficient protection but additional risk eliminating measures related to packaging and raw material quality need to be applied; With an F-criteria for any of the organism tested the whole challenge test is failed and the preservation/protection of the formulation is not sufficient; conditions: for Challenge test result S.a.: Example 2A, Velsan Flex 1.35%, CHA 0.15%; for Challenge test result Staphylococcus aureus: Example 2B, CHA 0.1%, Velsan SC 0.9%, Velsan CGE 0.9%
Excerpt: as §2, §3, §4, §5, §6

[15] = tested on: Pseudomonas aeruginosa; experiment: as above; parameters: key: An A-criteria is related to an excellent protection of a formulation; B-criteria is needed to show sufficient protection but additional risk eliminating measures related to packaging and raw material quality need to be applied; With an F-criteria for any of the organism tested the whole challenge test is failed and the preservation/protection of the formulation is not sufficient; conditions: for Challenge test result P.a.: Example 2A, Velsan Flex 1.35%, CHA 0.15%; for Challenge test result Pseudomonas aeruginosa: Example 2B, CHA 0.1%, Velsan SC 0.9%, Velsan CGE 0.9%
Excerpt: as §2, §3, §4, §5, §6

[16] = tested on: Aspergillus brasiliensis; experiment: as above; parameters: key: An A-criteria is related to an excellent protection of a formulation; B-criteria is needed to show sufficient protection but additional risk eliminating measures related to packaging and raw material quality need to be applied; With an F-criteria for any of the organism tested the whole challenge test is failed and the preservation/protection of the formulation is not sufficient; conditions: for Challenge test result A.b.: Example 2A, Velsan Flex 1.35%, CHA 0.15%; for Challenge test result Aspergillus brasiliensis: Example 2B, CHA 0.1%, Velsan SC 0.9%, Velsan CGE 0.9%
Excerpt: as §2, §3, §4, §5, §6

[17] = tested on: Pseudomonas aeruginosa, Staphylococcus aureus, Escherichia coli, Candida albicans and Aspergillus brasiliensis; experiment: Challenge test, overall result over all test germs; parameters: key: An A-criteria is related to an excellent protection of a formulation; B-criteria is needed to show sufficient protection but additional risk eliminating measures related to packaging and raw material quality need to be applied; With an F-criteria for any of the organism tested the whole challenge test is failed and the preservation/protection of the formulation is not sufficient; conditions: for Challenge test Overall result: Example 2B, CHA 0.1%, Velsan SC 0.9%, Velsan CGE 0.9%
Excerpt: as §2, §3, §4, §5, §6

| Molecule | Challenge test result Escherichia coli ([12]; pH 5) | Challenge test result Escherichia coli ([12]; pH 7) | Challenge test result Candida albicans ([13]; pH 5) | Challenge test result Candida albicans ([13]; pH 7) | Challenge test result Staphylococcus aureus ([14]; pH 5) | Challenge test result Staphylococcus aureus ([14]; pH 7) | Challenge test result Pseudomonas aeruginosa ([15]; pH 5) | Challenge test result Pseudomonas aeruginosa ([15]; pH 7) | Challenge test result Aspergillus brasiliensis ([16]; pH 5) | Challenge test result Aspergillus brasiliensis ([16]; pH 7) | Challenge test Overall result ([17]; pH 5) | Challenge test Overall result ([17]; pH 7) | also measured |
| --- | --- | --- | --- | --- | --- | --- | --- | --- | --- | --- | --- | --- | --- |
| CCCCCCCC(=O)NO [10% CHA solution, Caprylhydroxamic acid] |  |  |  |  |  |  |  |  |  |  |  |  | MIC [1]: 4000 µg/mL; MIC [2]: 3000 µg/mL; MIC [3]: 8000 µg/mL; MIC [4]: 8000 µg/mL; MIC [5]: 3000 µg/mL; MIC [6]: 2000 µg/mL; MIC [7]: 2000 µg/mL; MIC [8]: 5000 µg/mL; MIC [9]: 6000 µg/mL; MIC [10]: 3000 µg/mL; MIC [11]: 2000 µg/mL |
| CCCCCCCC(=O)NO [CHA, Caprylhydroxamic acid] | B | B | A | A | A | F | A | A | B | A | B | F | Challenge test result E.c. ([12]; pH 5): B; Challenge test result E.c. ([12]; pH 7): B; Challenge test result C.a. ([13]; pH 5): A; Challenge test result C.a. ([13]; pH 7): A; Challenge test result S.a. ([14]; pH 5): A; Challenge test result S.a. ([14]; pH 7): B; Challenge test result P.a. ([15]; pH 5): A; Challenge test result P.a. ([15]; pH 7): A; Challenge test result A.b. ([16]; pH 5): A; Challenge test result A.b. ([16]; pH 7): A; Challenge test, criteria obtained over all test organisms ([17]; Example 2A, pH 5, Velsan Flex 1.35%, CHA 0.15%): B |
| Sorbitan caprylate [Velsan SC] | A | B | B | B | A | A | F | F | F | F | F | F |  |
